The target of assay [1] is T1, human alpha2A receptors (Homo sapiens, UniProt P08913).
T1 construct: host or cells: CHO cells, cotransfected with expression vector pCEP-Galpha16
T1 sequence (P08913 1-465): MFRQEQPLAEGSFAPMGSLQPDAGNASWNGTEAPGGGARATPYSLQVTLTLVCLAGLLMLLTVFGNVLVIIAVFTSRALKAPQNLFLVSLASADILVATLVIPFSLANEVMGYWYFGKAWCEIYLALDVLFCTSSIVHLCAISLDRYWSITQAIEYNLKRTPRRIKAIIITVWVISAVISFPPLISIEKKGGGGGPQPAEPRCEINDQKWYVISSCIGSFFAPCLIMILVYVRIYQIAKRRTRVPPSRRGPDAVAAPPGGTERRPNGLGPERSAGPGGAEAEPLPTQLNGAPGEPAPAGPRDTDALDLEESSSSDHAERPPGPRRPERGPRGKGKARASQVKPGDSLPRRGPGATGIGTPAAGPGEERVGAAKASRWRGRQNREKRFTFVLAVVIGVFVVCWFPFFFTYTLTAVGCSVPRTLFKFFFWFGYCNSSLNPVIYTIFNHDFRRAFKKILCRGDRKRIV
Put plainly: Determination of alpha2A antagonistic activity in vitro (intracellular calcium, FLIPR Calcium 3 Assay, FLEXstation). The settings on record: CHO cells stably transfected with human alpha2A receptor and Gα16; stimulated with 100 nM adrenaline or 200 nM noradrenaline. It counts as cell-based. Here is the method: (§1) Chinese hamster ovary (CHO) cells stably transfected with human alpha2A and alpha2C or rodent alpha2D receptors (University of Turku, Finland) were cotransfected with the expression vector pCEP-Gα16 (Molecular Devices, CA, USA) and CHO cells stably transfected with human adrenergic alpha2B receptors and mitochondrially targeted aequorin (Euroscreen, Belgium) were used in this experiment. The cells were maintained at 37° C. in a 5% CO2/95% air atmosphere. The cells were cultured in HAM F-12 medium supplemented with 10% FCS, 25 mM HEPES, 100 IU/ml penicillin, 100 μg/ml streptomycin, 500 μg/ml geneticin and 240 μg/ml hygromycin B. The cells were subcultured twice weekly with 0.25% trypsin and 1 mM EDTA. The subculture ratio was 1:5-1:20. The growth medium was changed every 2 or 3 days. All cell culture reagents were from Gibco. The day before the experiment the cells were plated into black-walled, clear bottom 96-well plates at a density of 30,000-45,000 cells/well.
(§2) The growth medium was removed and the cells were incubated with the test compounds and the FLIPR Calcium 3 Assay reagent (Molecular Devices, CA, USA) for 1 h at 37° C. in dark. The test compounds (concentrations in cells 100 pM-10 μM) were dissolved in Probenecid-Ringer consisting of 150 mM NaCl, 3 mM KCl, 1.2 mM MgCl2, 1 mM CaCl2, 5 mM glucose, 20 mM HEPES and 2.5 mM probenecid (pH 7.4 adjusted with 1.0 M NaOH). The osmolarity was adjusted to 322 milliosmoles with Osmostat® OM-6020 osmometer (DIC Kyoto Daiichi Kagagu Co. Ltd, Japan). […] All experiments were performed at 37° C. The test compounds dissolved in Probenecid-Ringer were applied by FLEX station at 17 s time point. […] In order to determine antagonism, the cells were stimulated either with 100 nM adrenaline or 200 nM noradrenaline and the test compounds were added to the cells at least 5 min before the experiment. Typically, there were four replicates at each concentration and seven different dose levels. For example, if the number of plates from which results were obtained was three, 84 (4*7*3) wells were thus measured to construct dose-response relationship. The samples were excited at 485 nm and emission was detected at 525 nm with a 515 nm cut-off filter. Reading time was 60 s per well and the photomultiplier sensitivity value was set to 15. The minimum fluorescence value subtracted from the maximum value for each well was used in the calculations. SOFTmax PRO version 3.2 software was used for analyzing the results. Fitting of the antagonist dose-response results was performed with the free Hill equation and the IC50 values were fitted with Michaelis-Menten equation in Sigma Plot 8.0.
A general note: A change in cytosolic calcium serves as a functional read-out for many receptors and channels.

Assay [2] addresses T2, human alpha2C receptors (Homo sapiens, UniProt P18825).
T2 construct: host or cells: CHO cells, cotransfected with expression vector pCEP-Galpha16
T2 sequence (P18825 1-462): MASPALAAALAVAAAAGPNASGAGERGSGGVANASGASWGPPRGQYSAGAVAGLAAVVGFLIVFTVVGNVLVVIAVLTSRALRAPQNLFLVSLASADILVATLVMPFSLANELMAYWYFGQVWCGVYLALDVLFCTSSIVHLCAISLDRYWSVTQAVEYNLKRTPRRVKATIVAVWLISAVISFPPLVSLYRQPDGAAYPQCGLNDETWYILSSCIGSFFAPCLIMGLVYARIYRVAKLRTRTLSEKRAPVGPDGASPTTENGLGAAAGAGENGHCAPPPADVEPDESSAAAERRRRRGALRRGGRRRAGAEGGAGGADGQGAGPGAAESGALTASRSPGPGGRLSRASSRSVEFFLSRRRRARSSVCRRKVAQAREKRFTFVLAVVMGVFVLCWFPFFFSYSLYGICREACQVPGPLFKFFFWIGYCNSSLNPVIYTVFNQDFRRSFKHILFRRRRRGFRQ
Description: Determination of alpha2C antagonistic activity in vitro (intracellular calcium, FLIPR Calcium 3 Assay, FLEXstation). It is filed as cell-based. As to conditions: CHO cells stably transfected with human alpha2C receptor and Gα16; stimulated with 100 nM adrenaline or 200 nM noradrenaline. Here is the method:
as §1, §2

A value given as a limit tells only on which side of the number the result lay.

With `c1ccc(C2CCCN(CC3COc4ccccc4O3)C2)cc1` (stereo not drawn) [Example 2, 1-(2,3-Dihydrobenzo[1,4]dioxin-2-ylmethyl)-3-phenylpiperidine], the IC50 (in general, the midpoint of a concentration-inhibition curve) in assay [1] came out at 3780 nM; in assay [2], 11.4 nM.

Turning to `c1ccc2c(c1)OCC(CN1CCC3CCCCC3C1)O2` (stereo not drawn) [Example 48, 2-(2,3-Dihydrobenzo[1,4]dioxin-2-ylmethyl)decahydroisoquinoline], the 50% inhibitory concentration (IC50) in assay [1] was found to be 1470 nM; in assay [2], 7.4 nM.

As to `C[C@]1(COCC(=O)O)CCCN(C[C@H]2COc3ccccc3O2)C1` [Example 96, Sodium {(S)-1-[(S)-1-(2,3-dihydrobenzo[1,4]dioxin-2-yl)methyl]-3-methylpiperidin-3-yl-methoxy}acetate], the 50% inhibitory concentration (IC50) was found to be 5440 nM in assay [1] and 4.6 nM in assay [2].

As for `CC1(COCC(F)(F)F)CCCN(CC2COc3ccccc3O2)C1` (stereo not drawn) [Example 74, 1-(2,3-Dihydrobenzo[1,4]dioxin-2-ylmethyl)-3-methyl-3-(2,2,2-trifluoroethoxymethyl)-piperidine], the results for the IC50 in assay [1] and in assay [2] were 346 nM and 7.4 nM, respectively.

As for `Oc1ccccc1C1CCCN(CC2COc3ccccc3O2)C1` (stereo not drawn) [Example 12, 2-[1-(2,3-Dihydrobenzo[1,4]dioxin-2-ylmethyl)piperidin-3-yl]phenol], the IC50 in assay [1] was found to be 374 nM; in assay [2], 19.6 nM.

Take `C[C@]1(C(=O)O)CCCN(C[C@H]2COc3ccccc3O2)C1` [Example 86, Lithium (S)-1-[(S)-1-(2,3-dihydrobenzo[1,4]dioxin-2-yl)methyl]-3-methyl-piperidine-3-carboxylate]: the IC50 was 8420 nM in assay [1] and 10.7 nM in assay [2].

Consider `CCC1(COC)CCCN(CC2COc3ccccc3O2)C1` (stereo not drawn) [Example 63, 1-(2,3-Dihydrobenzo[1,4]dioxin-2-ylmethyl)-3-ethyl-3-methoxymethylpiperidine], for which the results for the IC50 in assay [1] and in assay [2] were 2730 nM and 0.8 nM, respectively.

Regarding `CC1(COS(C)(=O)=O)CCCN(CC2COc3ccccc3O2)C1` (stereo not drawn) [Example 61, Methanesulfonic acid 1-(2,3-dihydrobenzo[1,4]dioxin-2-ylmethyl)-3-methylpiperidin-3-ylmethyl ester], the figures for the IC50 in assay [1] and in assay [2] were 2870 nM and 2.4 nM, respectively.

For `C=CCC1(CO)CCCN(CC2COc3ccccc3O2)C1` (stereo not drawn) [Example 71, [3-Allyl-1-(2,3-dihydrobenzo[1,4]dioxin-2-ylmethyl)piperidin-3-yl]methanol], the IC50 in assay [1] is 1150 nM; in assay [2], 1.1 nM.

For the compound `C[C@]1(COCCO)CCCN(C[C@H]2COc3ccccc3O2)C1` [Example 89, 2-{(S)-1-[(S)-1-(2,3-Dihydrobenzo[1,4]dioxin-2-yl)methyl]-3-methylpiperidin-3-ylmethoxy}-ethanol D-tartrate], the half-inhibitory concentration (IC50) in assay [1] was 2140 nM; in assay [2], 0.6 nM.

For the compound `C=CCOCC1(C)CCCN(CC2COc3ccccc3O2)C1` (stereo not drawn) [Example 69, 3-Allyloxymethyl-1-(2,3-dihydrobenzo[1,4]dioxin-2-ylmethyl)-3-methyl-piperidine], the IC50 was determined as 1290 nM in assay [1] and 1.7 nM in assay [2].

Regarding `Fc1ccc(C2CCCN(C[C@H]3COc4ccccc4O3)C2)cc1` (stereo in doubt) [Example 18, (R*)-1-[(S)-1-(2,3-Dihydrobenzo[1,4]dioxin-2-yl)methyl]-3-(4-fluorophenyl)piperidine], the half-inhibitory concentration (IC50) in assay [1] was greater than 10000 nM; in assay [2] it was 69.5 nM.

On to `OCc1cccc(C2CCCN(C[C@H]3COc4ccccc4O3)C2)c1` (stereo in doubt) [Example 29, (3-{(R*)-1-[(S)-1-(2,3-Dihydrobenzo[1,4]dioxin-2-yl)methyl]piperidin-3-yl}phenyl)methanol], for which the values for the IC50 in assay [1] and in assay [2] were 4360 nM and 5.4 nM, respectively.

Take `COC(C)(C)C1(C)CCCN(CC2COc3ccccc3O2)C1` (stereo not drawn) [Example 58, 1-(2,3-Dihydrobenzo[1,4]dioxin-2-ylmethyl)-3-(1-methoxy-1-methylethyl)-3-methylpiperidine]: the values for the IC50 in assay [1] and in assay [2] were 776 nM and 9.5 nM, respectively.

As for `C=CCC1(COC)CCCN(CC2COc3ccccc3O2)C1` (stereo not drawn) [Example 72, 3-Allyl-1-(2,3-dihydrobenzo[1,4]dioxin-2-ylmethyl)-3-methoxymethylpiperidine], the IC50 in assay [1] was found to be 635 nM; in assay [2], 0.9 nM.

These data come from patent US8809536B2, “2,3-dihydrobenzo[1,4] dioxin-2-ylmethyl derivatives as alpha2C antagonists for use in the treatment of peripheric and central nervous system diseases” (Orion Corporation, priority 2007, dated 2014).
